Source: patent US10285865B2, “Drug-releasing device usable in mucosal body cavities” (Princeton Trade & Technololgy, Inc., priority 2014, dated 2019)
≈ marks a conversion by molar mass, not a printed value.

What was measured:
Type in all cases: cell-based
Haemophilus influenza = assay: Minimum Inhibitory Concentration (MIC) in water
Source text: (§1) In an embodiment of the invention, the two forms of Ciprofloxacin can be combined in a single implant so as to achieve a desired the rate of delivery, the solubility limit of the drug in middle ear exudate or release of the drug. […]. The Minimum Inhibitory Concentration is the smallest concentration of a drug in water that will inhibit growth of a particular bacteria in solution.
(§2) The quantity Minimum Inhibitory Concentration (MIC) is the smallest concentration of a drug in water that will inhibit growth of a particular organism. It may be desirable for the administered concentration of a drug to be some multiple of this quantity. MIC for Ciprofloxacin is given here for several organisms typical of otitis media. For Pseudomonas aeruginosa, the MIC is 0.09 micrograms per milliliter. […] For Haemophilus influenza, the MIC is 0.06 micrograms per milliliter.

Streptococcus pneumonia = assay: Minimum Inhibitory Concentration (MIC) in water; settings: Streptococcus pneumoniae
Source text: as §1, §2

Pseudomonas aeruginosa = assay: Minimum Inhibitory Concentration (MIC) in water
Source text: as §1, §2

[1] = test system: Staphylococcus aureus LUX; assay: microbe, parasite or virus in culture
Source text: as §1, §2

[2] = test system: Staphylococcus aureus GFP; assay: microbe, parasite or virus in culture
Source text: as §1, §2

**Q.** `O=C(O)c1cn(C2CC2)c2cc(N3CCNCC3)c(F)cc2c1=O` [Ciprofloxacin] was tested. Which MIC (Haemophilus influenza) did it give?
**A.** The MIC was 0.06 µg/mL (≈ 0.181 µM).

**Q.** And the MIC (Streptococcus pneumonia)?
**A.** The MIC was 0.75 µg/mL (≈ 2.26 µM).

**Q.** What about the MIC (Pseudomonas aeruginosa) of the same compound?
**A.** Its MIC is 0.09 µg/mL (≈ 0.272 µM).

**Q.** What about the MIC [1] of the same compound?
**A.** The MIC was 0.28 µg/mL (≈ 0.845 µM).

**Q.** And the MIC [2]?
**A.** The MIC was 0.28 µg/mL (≈ 0.845 µM).
